ChEMBL document CHEMBL2073928, “Overlapping substrate specificities and tissue distribution of cytochrome P450 3A and P-glycoprotein: implications for drug delivery and activity in cancer chemotherapy” (Mol Carcinog, 1995)

Legend:
Type in all cases: functional, organism-based
[1] = target: ATP-dependent translocase ABCB1 (Rattus norvegicus, UniProt P43245); assay: (§1) TP_TRANSPORTER: RT-PCR in vivo Wistar rat, liver
[2] = target: Multidrug resistance protein 1a (Rattus norvegicus) (UniProt Q6PSM0); assay: TP_TRANSPORTER: Western in vivo Wistar rat, liver
Multidrug resistance protein 1a (Rattus norvegicus), sequence (Q6PSM0 as listed by the source): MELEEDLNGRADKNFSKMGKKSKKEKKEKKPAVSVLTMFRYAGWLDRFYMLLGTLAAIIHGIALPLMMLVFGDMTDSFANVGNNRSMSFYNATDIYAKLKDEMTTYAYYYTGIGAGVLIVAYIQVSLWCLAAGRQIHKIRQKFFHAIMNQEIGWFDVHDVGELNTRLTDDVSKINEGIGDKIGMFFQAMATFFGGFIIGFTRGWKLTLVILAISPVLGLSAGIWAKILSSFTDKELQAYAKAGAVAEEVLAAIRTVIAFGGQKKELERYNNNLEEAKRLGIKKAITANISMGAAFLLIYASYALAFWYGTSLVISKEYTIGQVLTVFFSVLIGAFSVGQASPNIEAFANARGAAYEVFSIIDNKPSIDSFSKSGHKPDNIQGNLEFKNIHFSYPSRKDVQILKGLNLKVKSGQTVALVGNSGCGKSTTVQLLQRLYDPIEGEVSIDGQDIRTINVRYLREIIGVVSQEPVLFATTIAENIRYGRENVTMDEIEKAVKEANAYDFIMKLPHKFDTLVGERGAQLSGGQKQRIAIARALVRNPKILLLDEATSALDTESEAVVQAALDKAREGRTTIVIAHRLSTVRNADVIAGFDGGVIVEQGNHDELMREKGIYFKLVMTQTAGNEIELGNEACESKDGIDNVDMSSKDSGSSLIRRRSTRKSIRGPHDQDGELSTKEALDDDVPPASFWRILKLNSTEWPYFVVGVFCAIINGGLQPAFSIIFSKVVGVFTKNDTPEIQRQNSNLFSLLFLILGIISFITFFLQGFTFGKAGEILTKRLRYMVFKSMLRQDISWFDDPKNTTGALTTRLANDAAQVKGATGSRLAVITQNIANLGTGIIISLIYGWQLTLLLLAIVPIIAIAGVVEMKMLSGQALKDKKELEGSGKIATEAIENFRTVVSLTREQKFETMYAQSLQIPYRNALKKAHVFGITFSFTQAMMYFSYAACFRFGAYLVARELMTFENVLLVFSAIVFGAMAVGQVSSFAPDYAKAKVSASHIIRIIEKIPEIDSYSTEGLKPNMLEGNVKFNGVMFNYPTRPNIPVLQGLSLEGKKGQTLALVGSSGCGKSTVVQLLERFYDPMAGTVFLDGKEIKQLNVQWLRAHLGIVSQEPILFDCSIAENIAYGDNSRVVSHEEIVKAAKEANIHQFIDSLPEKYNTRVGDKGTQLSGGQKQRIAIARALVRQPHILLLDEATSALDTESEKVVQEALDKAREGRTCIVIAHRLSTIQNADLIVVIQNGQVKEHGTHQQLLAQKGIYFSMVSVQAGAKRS

[3] = target: Multidrug resistance protein 1a (Rattus norvegicus) (UniProt Q6PSM0); assay: as §1

ATP-dependent translocase ABCB1, sequence (P43245 whole entry): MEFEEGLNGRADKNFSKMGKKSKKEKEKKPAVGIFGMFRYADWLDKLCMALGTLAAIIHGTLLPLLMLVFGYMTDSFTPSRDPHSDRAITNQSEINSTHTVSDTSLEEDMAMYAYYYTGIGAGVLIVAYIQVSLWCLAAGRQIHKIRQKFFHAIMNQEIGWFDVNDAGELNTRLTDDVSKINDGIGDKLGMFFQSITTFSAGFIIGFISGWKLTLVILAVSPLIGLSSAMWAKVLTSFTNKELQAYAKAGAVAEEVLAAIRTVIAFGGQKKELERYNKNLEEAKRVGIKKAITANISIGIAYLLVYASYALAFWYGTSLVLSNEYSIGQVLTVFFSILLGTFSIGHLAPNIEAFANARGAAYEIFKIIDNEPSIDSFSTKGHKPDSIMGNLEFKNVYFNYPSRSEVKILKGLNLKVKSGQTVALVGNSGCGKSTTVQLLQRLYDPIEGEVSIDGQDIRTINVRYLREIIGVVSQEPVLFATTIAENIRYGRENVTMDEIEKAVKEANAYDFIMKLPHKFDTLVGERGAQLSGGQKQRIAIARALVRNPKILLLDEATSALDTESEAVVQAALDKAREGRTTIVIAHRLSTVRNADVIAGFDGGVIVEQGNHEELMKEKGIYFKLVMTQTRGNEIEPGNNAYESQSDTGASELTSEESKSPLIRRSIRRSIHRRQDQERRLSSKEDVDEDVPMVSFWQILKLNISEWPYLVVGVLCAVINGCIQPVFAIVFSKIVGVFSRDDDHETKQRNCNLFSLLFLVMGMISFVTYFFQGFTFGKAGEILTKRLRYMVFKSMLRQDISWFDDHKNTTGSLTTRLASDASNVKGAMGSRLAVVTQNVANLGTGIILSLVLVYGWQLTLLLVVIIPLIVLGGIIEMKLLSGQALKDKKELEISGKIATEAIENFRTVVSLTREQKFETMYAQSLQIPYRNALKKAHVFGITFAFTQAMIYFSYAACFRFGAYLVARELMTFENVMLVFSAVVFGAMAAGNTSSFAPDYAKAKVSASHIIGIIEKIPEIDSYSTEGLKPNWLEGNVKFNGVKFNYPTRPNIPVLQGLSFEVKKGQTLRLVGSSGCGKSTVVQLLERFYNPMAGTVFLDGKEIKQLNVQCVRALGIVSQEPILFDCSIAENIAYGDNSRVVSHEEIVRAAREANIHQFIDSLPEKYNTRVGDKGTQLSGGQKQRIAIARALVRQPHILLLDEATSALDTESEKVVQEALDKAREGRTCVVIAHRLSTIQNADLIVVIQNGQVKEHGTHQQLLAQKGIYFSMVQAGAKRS

## CC(=O)Nc1ccc2c(c1)Cc1ccccc1-2 [2-ACETYLAMINOFLUORENE]
[1]
  Activity: inducer [+]
[2]
  Activity: inducer [+]
[3]
  Activity: inducer [+]
